Data published in paper PMC8129498, “Synthesis, Antitumor and Antiviral In Vitro Activities of New Benzotriazole-Dicarboxamide Derivatives” (Frontiers in Chemistry, 2021).

How the values were obtained:
[1] = tested on: HeLa; test: Antiproliferative assay (MTT), HeLa; format: cell-based; conditions: Homo sapiens, 96 h, read-out: CC50 HeLa
Procedure: (§1) Cell lines were purchased from American Type Culture Collection (ATCC). The absence of mycoplasma contamination was checked periodically by the Hoechst staining method. Exponentially growing leukemia and lymphoma cells were seeded at 1 × 10^5 cells/ml in 96 well plates in RPMI-1640 medium, supplemented with 10% fetal bovine serum, 100 units/ml penicillin G, and 100 μg/ml streptomycin, and incubated at 37°C in a humidified, 5% CO2 atmosphere in the absence or presence of serial dilutions of test compounds. Cell viability was determined after 96 h at 37°C by the 3-(4,5-dimethylthiazol-2-yl)-2,5-diphenyl-tetrazolium bromide (MTT) method. Activity against solid-tumor derived cells was evaluated in exponentially growing cultures seeded at 5 × 10^4 cells/ml and allowed to adhere for 16 h to culture plates before the addition of the drugs. Cell viability was determined by the MTT method 4 days later. Vincristine and doxorubicin were used as reference drugs.
(§2) The extent of cell growth/viability and viral multiplication, at each drug concentration tested, were expressed as percentage of untreated controls. Concentrations resulting in 50% inhibition (CC50 or EC50) were determined by linear regression analysis.

[2] = tested on: DU145; test: Antiproliferative assay (MTT), DU145; format: cell-based; conditions: Homo sapiens, DU-145, 96 h, read-out: CC50 DU145
Procedure: as §1, §2

[3] = tested on: OVCAR-4; test: NCI60 Human Tumor Cell Lines Screen, OVCAR-4; format: cell-based; conditions: OVCAR-4 ovarian cancer cell line, read-out: Percentage of Growth Inhibition (PGI)
Procedure: (§3) The in vitro anti-cancer screening was performed through the NCI60 Human Tumor Cell Lines Screen, provided by the Developmental Therapeutics Program of the National Cancer Institute (NCI, Bethesda, United States). A single dose of 10 µM of each compound is tested in the whole NCI60 cell panel. More details about the NCI60 screen methods are reported on the NCI website (https://dtp.cancer.gov ).

[4] = tested on: panel of 60 human tumor cell lines; test: NCI60 Human Tumor Cell Lines Screen, whole panel; format: cell-based; conditions: 10 μM, of the 60 cell lines
Procedure: as §3

[5] = tested on: breast cancer cell lines; test: NCI60 Human Tumor Cell Lines Screen, breast cancer lines; format: cell-based; conditions: most of the breast cancer cell lines, read-out: Percentage of Growth Inhibition (PGI)
Procedure: as §3

[6] = tested on: prostate cancer cell lines; test: NCI60 Human Tumor Cell Lines Screen, prostate cancer lines; format: cell-based; conditions: the two prostate cancer cell lines
Procedure: as §3

[7] = tested on: SK-MES1; test: Antiproliferative assay (MTT), SK-MES1; format: cell-based; conditions: Homo sapiens, SK-MES-1, 96 h, read-out: CC50 SK-MES1
Procedure: as §1, §2

[8] = tested on: SK-MEL28; test: Antiproliferative assay (MTT), SK-MEL28; format: cell-based; conditions: Homo sapiens, SK-MEL-28, 96 h, read-out: CC50 SK-MEL28
Procedure: as §1, §2

[9] = tested on: WIL-2NS; test: Antiproliferative assay (MTT), WIL-2NS; format: cell-based; conditions: Homo sapiens, WIL2-NS, 96 h, read-out: CC50 WIL-2NS
Procedure: as §1, §2

[10] = tested on: CCRF-SB; test: Antiproliferative assay (MTT), CCRF-SB; format: cell-based; conditions: Homo sapiens, 96 h, read-out: CC50 CCRF-SB
Procedure: as §1, §2

[11] = Antiproliferative assay (MTT), CRL 7065 control fibroblasts; format: cell-based, human; conditions: MTT; human foreskin fibroblasts, non-tumor control; read-out: CC50 CRL 7065
Procedure: as §1, §2

[12] = tested on: CCRF-CEM; test: Antiproliferative assay (MTT), CCRF-CEM; format: cell-based, human; conditions: for CC50: Homo sapiens, CCRF-CEM, 96 h, read-out: CC50 CCRF-CEM
Procedure: as §1, §2

[13] = tested on: SK-MES 1 cells; test: Apoptosis assay (Annexin V/PI, flow cytometry); format: cell-based, human; conditions: 96 h
Procedure: 3b compound was selected as lead and employed in our assay. Human lung cancer cells (SK-MES 1) were seeded at the density of 8 × 10^5 cells/ml in 6-well plates (Corning, United States) with a complete medium (described in cell culture section). After overnight incubations, the cells were treated with or without different concentrations of 3b for 96 h. Cells were then labeled with Annexin V and PI as previously described ([Ibba et al., 2021]). Stained cells were then analyzed by flow cytometry, measuring the fluorescence emission at 530 and 620 nm using 488 nm excitation laser (MoFloAstrios EQ, Beckman Coulter). Cell apoptosis was analyzed using Software Summit Version 6.3.1.1, Beckman Coulter.

[14] = Cytotoxicity in Vero-76 cell-line (MTT); format: cell-based; conditions: monkey (Cercopithecus aethiops), Vero-76 cells (mock-infected), mock-infected Vero-76 cells
Procedure: Vero-76 cells were seeded in 96-well plates at an initial density of 5 × 10^5 cells/ml, in Dulbecco’s Modified Eagle Medium (D-MEM) with L-glutamine and 25 mg/L kanamycin, supplemented with 10% FBS. Cell cultures were then incubated at 37°C in a humidified and 5% CO2 atmosphere, in the absence or presence of serial dilutions of test compounds. The test medium used for the cytotoxic assay as well as for antiviral assay contained 1% of the appropriate serum. Cell viability was determined after 48–96 h at 37°C by MTT method for Vero-76 ([Pauwels et al., 1988]).
as §2

[15] = tested on: Coxsackievirus B5 (CV-B5); test: Plaque reduction assay, CV-B5 in Vero-76 monolayers; format: cell-based; conditions: Enterovirus B
[16] = tested on: Poliovirus type-1 (Sb-1); test: microbe, parasite or virus in culture; format: cell-based; conditions: Enterovirus C, Vero 76, read-out: EC50, plaque reduction Sb-1

What does the source list for `O=C(CCCC(=O)Nc1ccc(-n2nnc3cc(Cl)c(Cl)cc32)cc1)Nc1ccc(-n2nnc3cc(Cl)c(Cl)cc32)cc1` [Compound 3b, N ^1,N ^5-Bis(4-(5,6-Dichloro-1H-Benzo[d][1,2,3]Triazol-1-yl)phenyl)glutaramide]?
CC50 [1]: 7.1 ± 2.7 µM; CC50 [2]: 5.1 µM; inhibition at 10 µM [3]: 106%; number of cell lines with PGI higher than 50% [4]: 29; inhibition at 10 µM [5]: 48 to 81%; Percentage of Growth Inhibition (PGI) ([6]; 10 μM): 66%; inhibition at 10 µM ([6]; Homo sapiens, read-out: Percentage of Growth Inhibition (PGI)): 80%; CC50 [7]: 6.8 ± 3.5 µM; CC50 [8]: 6.2 ± 1.3 µM; CC50 [9]: > 100 µM; CC50 [10]: 0.35 ± 0.07 µM; CC50 at 96 h [11]: 0.75 ± 0.05 µM; CC50 [12]: 0.5 ± 0.1 µM; % Early apoptotic cells ([13]; 7μM): 21.4 ± 12.32%; % Late apoptotic cells ([13]; 7μM): 10.5 ± 0.67%; % Live cells ([13]; 7μM): 63.8 ± 1.1%; % Necrotic cells ([13]; 7μM): 4.3 ± 0.74%; % Early apoptotic cells ([13]; 20μM): 28.5 ± 4.63%; % Late apoptotic cells ([13]; 20μM): 11.1 ± 2.08%; % Live cells ([13]; 20μM): 54.8 ±4.9%; % Necrotic cells ([13]; 20μM): 5.6 ±1.74%; apoptotic cells ([13]; 7 µm): 32%; apoptotic cells ([13]; 20 µm): 40%

Which CC50 [1] does the source give for `O=C(/C=C/C(=O)Nc1ccc(-n2nnc3cc(Cl)c(Cl)cc32)cc1)Nc1ccc(-n2nnc3cc(Cl)c(Cl)cc32)cc1` [Compound 3d, N ^1 ,N ^4-Bis(4-(5,6-Dichloro-1H-Benzo[d][1,2,3]Triazol-1-yl)phenyl)fumaramide] here?
Its CC50 is greater than 100 µM.

And the CC50 [2]?
Its CC50 is greater than 100 µM.

What about the melting point of the same compound?
The melting point was greater than 300 °C.

What about the CC50 [7] of the same compound?
The CC50 was greater than 100 µM.

What about the CC50 [8] of the same compound?
Its CC50 is greater than 100 µM.

What about the CC50 [9] of the same compound?
The CC50 was greater than 100 µM.

What about the CC50 [10] of the same compound?
Its CC50 is 7.9 ± 0.9 µM.

And the CC50 at 96 h [11]?
The CC50 at 96 h was 0.37 ± 0.04 µM.

And the CC50 [12]?
Its CC50 is 0.07 ± 0.02 µM.

What about the “selectivity index (SI)” value ([12]; ratio of CC50 of non-tumor cells (CRL 7065) and CC50 of tumor cells (CCRF-CEM)) of the same compound?
The value was 5.3.

With `O=C(CCCC(=O)Nc1ccc(Cn2nnc3cc(Cl)c(Cl)cc32)cc1)Nc1ccc(Cn2nnc3cc(Cl)c(Cl)cc32)cc1` [Compound 9b, N ^1,N ^5-Bis(4-((5,6-Dichloro-1H-Benzo[d][1,2,3]Triazol-1-yl)methyl)phenyl)Glutaramide] as the compound, how does the CC50 [1] read?
The CC50 was 5.4 ± 0.7 µM.

What about the CC50 [2] of the same compound?
The CC50 was 5.2 ± 0.4 µM.

What about the melting point of the same compound?
Its melting point is 204 to 206 °C.

What about the CC50 [7] of the same compound?
The CC50 was 9.9 ± 3.1 µM.

What about the CC50 [8] of the same compound?
Its CC50 is 2.6 ± 0.7 µM.

What about the CC50 [9] of the same compound?
The CC50 was 23 ± 7 µM.

What about the CC50 [14] of the same compound?
The CC50 was 75 µM.

What about the EC50 [15] of the same compound?
Its EC50 is 52 µM.

What about the EC50 [16] of the same compound?
The EC50 was greater than 75 µM.

And the CC50 [10]?
Its CC50 is 8.5 ± 3.2 µM.

What about the CC50 at 96 h [11] of the same compound?
Its CC50 at 96 h is 6.7 ± 2.4 µM.

What about the CC50 [12] of the same compound?
The CC50 was 5.5 ± 1.8 µM.

For `CC[C@]1(O)C[C@H]2CN(CCc3c([nH]c4ccccc34)[C@@](C(=O)OC)(c3cc4c(cc3OC)N(C=O)[C@H]3[C@@](O)(C(=O)OC)[C@H](OC(C)=O)[C@]5(CC)C=CCN6CC[C@]43[C@@H]65)C2)C1` [Vincristine, reference compound], which CC50 [1] is on record?
Its CC50 is 0.05 ± 0.02 µM.

And the CC50 [2]?
The CC50 was 0.02 ± 0.01 µM.

What about the CC50 [7] of the same compound?
Its CC50 is 0.01 ± 0.02 µM.

And the CC50 [8]?
Its CC50 is greater than 4 µM.

And the CC50 [9]?
Its CC50 is 0.006 ± 0.002 µM.

What about the CC50 [10] of the same compound?
Its CC50 is 0.003 ± 0.001 µM.

What about the CC50 at 96 h [11] of the same compound?
The CC50 at 96 h was greater than 4 µM.

What about the CC50 [12] of the same compound?
Its CC50 is 0.003 ± 0.001 µM.

With `O=C(O)/C=C/C(=O)Nc1ccc(-n2nnc3cc(Cl)c(Cl)cc32)cc1` [Compound 4d, (E)-4-((4-(5,6-Dichloro-1H-Benzo[d][1,2,3]Triazol-1-yl)phenyl)amino)-4-oxobut-2-enoic Acid] as the compound, how does the CC50 [1] read?
The CC50 was greater than 100 µM.

And the CC50 [2]?
The CC50 was greater than 100 µM.

What about the melting point of the same compound?
The melting point was 231 to 233 °C.

And the CC50 [7]?
Its CC50 is greater than 100 µM.

And the CC50 [8]?
The CC50 was greater than 100 µM.

What about the CC50 [9] of the same compound?
The CC50 was 64 ± 10 µM.

And the CC50 [14]?
Its CC50 is greater than 100 µM.

What about the EC50 [15] of the same compound?
Its EC50 is 10 µM.

And the EC50 [16]?
Its EC50 is greater than 100 µM.

What about the CC50 [10] of the same compound?
The CC50 was 0.51 ± 0.13 µM.

What about the CC50 at 96 h [11] of the same compound?
The CC50 at 96 h was 1.7 ± 0.1 µM.

And the CC50 [12]?
The CC50 was 3.3 ± 1.7 µM.
